We go through two compounds from publication PMC12067350, “Discovery of Thieno[3,2‑b]pyridine-5-carboxamide and 2,3-Difluorobenzamide Negative Allosteric Modulators of Metabotropic Glutamate Receptor Subtype 5” (ACS Medicinal Chemistry Letters, 2025).

The nature of data set [1]: Binding in brain homogenate from rat (equilibrium dialysis). The class given is in vitro ADME. To be noted: fraction unbound, rat brain homogenates. How it is done: (§1) Binding in plasma from rat and human.
(§2) Determination of compounds’ fraction unbound (f u) in plasma from rat and human was conducted in vitro via equilibrium dialysis using HTDialysis membrane plates. Dialysis membranes (four paired strips per HTD assay) were hydrated as described by the manufacturer and inserted into the HTD plate, which was assembled and prepared for sample addition by the dispensing of blank buffer (DPBS, 100 µL/well) into the ‘top half’ of each membrane-split well. Each compound was diluted into plasma from each species (5 µM final concentration), which was aliquoted in triplicate to the ‘bottom half’ of the prepared HTD plate wells. […] Supernatant (60 µL) from each well of the daughter plates was then transferred to the corresponding wells of new daughter plates (96-shallow-well, V bottom) containing water (Milli-Q, 60 µL/well), and the plates were sealed in preparation for LC-MS/MS analysis (see below). fu was calculated as (analyte to IS MS peak area ratio from Trans-buffer side) / (analyte to IS MS peak area ratio from Cis-plasma side). Mean values for each species were calculated from 3 replicates. […]
The diluted fraction unbound (f u2) in brain was calculated as (analyte to IS MS peak area ratio from Trans-buffer side) / (analyte to IS MS peak area ratio from Cis-brain homogenate side). […]
(§3) Mean values for each species were calculated from 3 replicates.

A short description of data set [2]: Intrinsic clearance in human liver microsomes. Type of data set: in vitro ADME. To be noted: for CLint scaled at 0.75 h, 1 µM: pH 7.4, human liver microsomes; for CLhep, human: predicted hepatic clearance from human microsomes.
Data set [3] is described as follows: Binding in plasma from rat (equilibrium dialysis). The class given is in vitro ADME. To be noted: fraction unbound. The method, then: as §1
as §2, with “wells. The HTD plate was sealed and incubated for 6 hours at 37 °C.” for “wells.”
as §3
On the technique in general: In equilibrium dialysis only unbound substance equilibrates across the membrane.

Data set [4] is described as follows: Rat IV/PO pharmacokinetics. The following applies: plasma, IV 1 mg/kg; for MRT / clearance / half-life / Vd: male Sprague-Dawley rats (n = 2); for clearance: read-out: CLp; for half-life: read-out: Elim. t 1/2 (converted); for Vd: read-out: V ss. Type of data set: in vivo, Sprague-Dawley rat. The method, then: (1700 rcf, 5 minutes, 4 °C) to obtain plasma sample. […]
All brain and plasma samples were stored at -80 °C until analysis by LC-MS/MS.
Male Sprague-Dawley rats were used for discrete pharmacokinetic studies. Compounds in ethanol:
PEG400: saline (1:4:5 v/v/v) were administered intra-venously in two rats at 1 mg/kg (IV PK). Two rats were also gavaged at 10 mg/kg with compounds in 10% Tween 80 in water (PO PK). Blood samples were collected from all […] at […] different time points post-dose (0.25, 0.50, 1.0, 2.0, 4.0, 7.0 and 24 hr) and plasma was prepared as described above. The concentration of compounds in plasma was quantified by LC/MS/MS as described below.
The IV PK experiment was used to determine clearance, Volume of distribution and half-life. The PO experiments were used to determine exposure and oral bioavailability. PK parameters were calculated using Phoenix WinNonlin software (version 8.1).
Samples preparation for bioanalysis
Plasma samples from the in-life phase of the study were thawed at ambient temperature (benchtop), and then aliquots (20 µL per sample) were transferred to a 96-shallow-well (V-bottom) plate. Matrix-matched quality control (QC) samples and standard curves of VU6031545 and VU6024945 (1 mg/mL DMSO stock solution) were prepared in blank rat plasma (K2EDTA-treated) or blank brain homogenate via serial dilution and transferred (20 µL each) to the plate along with multiple blank plasma and brain homogenate samples. Acetonitrile (120 µL) containing IS (10 nM carbamazepine) was added to each well of the plate to precipitate protein. The plate was then centrifuged (4000 rcf, 5 minutes, ambient temperature), and resulting supernatants (60 µL each) were transferred to a new 96-shallow-well (V-bottom) plate containing an equal volume (60 µL per well) of water (Milli-Q purified). The plate was then sealed in preparation for LC-MS/MS analysis. […]

Setting [5] is: male Sprague-Dawley rats, PO 10 mg/kg, read-out: %F (oral bioavailability).

In general, CLint scaled refers to a measure of how fast metabolising enzymes remove a compound, apart from limits set by blood flow. A low value points to greater metabolic stability. In general, MRT refers to a mean duration of stay, worked out from the concentration-time curve. As a reminder, the bioavailability is the share of a dose that reaches the circulation, judged against a reference dose that is usually intravenous. Consider `Cc1csc(NC(=O)c2cc(O[C@@H]3CCOC3)c3sccc3n2)n1` [19aA], for which the “Rat f u,brain” value in data set [1] worked out at 0.009. Moreover, in data set [2], the CLint scaled at 0.75 h, 1 µM came out at 8.4 L/h/kg and the “CLhep, human” value is 1.1 L/h/kg. In data set [3], the “rat f u,plasma” value turned out to be 0.027. In addition, in data set [4], the MRT came out at 2.45 h, the clearance was 2.96 L/h/kg, the half-life is 3.42 h and the Vd was determined as 6.67 L/kg. The bioavailability in data set [4] (setting [5]) is above 100%.

For the compound `Cc1csc(NC(=O)c2cc(O[C@@H]3CCOC3)cc(F)c2F)n1` [27cA], the “Rat f u,brain” value in data set [1] was 0.051. Further, in data set [2], the CLint scaled at 0.75 h, 1 µM stood at 14.5 L/h/kg and the “CLhep, human” value was 1.16 L/h/kg. Further, in data set [3], the “rat f u,plasma” value came to 0.040. In addition, in data set [4], the MRT was 1.44 h, the clearance stood at 1.88 L/h/kg, the half-life is 1.78 h and the Vd came to 2.89 L/kg. Moreover, in data set [4] (setting [5]), the bioavailability amounted to 17% and the bioavailability at 24 h stood at 16.6%.
